In patent publication US12472228B2, “Use of exosome-based delivery of NF-κB inhibitors” (Ilias Biologics Inc., priority 2020, dated 2025):

Columns and labels:
THP-1 cells = assay: LPS-stimulated THP-1 cells, cytokine secretion (ELISA); type: cell-based, human; conditions: JSH-23 50 μM, Exo-srIκB 5×10^6 particles
Description: (A) HEK293-NF-κB-luciferase cells (2×10^4 cells) were cultured either with Exo-Naïve or with Exo-srIκB 2×10^5 particles. After 24 h, the cells were treated with 0.5 ng/ml TNF-α for an additional 18 h. Luciferase activities were measured and normalized. (B) Exo-srIκB dose-dependently repressed NF-κB activation in NF-κB-luciferase cells. (C) THP-1 cells (5×10^5 cells) were stimulated with […] LPS and then treated with Exo-srIκBs 5×10^6 particles. The supernatants were collected and assayed for the production of TNF-α and monocyte chemoattractant protein (MCP)-1. […] Cells were harvested into a single-cell suspension and assessed through flow cytometry using specific phycoerythrin (PE)-conjugated antibodies against human intercellular cell adhesion molecule (ICAM)-1.
The TNF-α, IL-8 and MCP-1 levels in supernatants collected from THP-1 and HUVEC cultures were measured using commercial ELISA kits (R&D Systems, Minneapolis, MN, USA), and NF-κB activity in HUVECs was measured using the Trans AM NF-κB p65 kit (Active Motif, Carlsbad, CA, USA). TNF-α, CCL-4/macrophage inflammatory protein (MIP)-1β, IL-6, and IL-1β levels in mouse plasma collected through cardiac puncture at the indicated time points after the high-grade CLP procedure were measured using the Mouse Magnetic Luminex eScreening Assay kit (R&D Systems). […]

[1] = tested on: experimental ischemic AKI model; conditions: by lowering inflammatory cytokine expression and macrophages/monocyte accumulation; cited from earlier work
lung IRI model = conditions: decreases neutrophil infiltration and pulmonary edema; cited from earlier work

Cc1ccc(NCCCc2ccccc2)c(N)c1 [JSH-23]
inhibiting LPS-induced NF-κB activation and cytokine production: Exo-srIκB versus JSH-23 (THP-1 cells): comparable effects

infliximab: anti-TNF-α agent
effect in the experimental ischemic AKI model [1]: protective effects

B1: srIκB: non-degradable IκBα protein with mutations at serine residues 32 and 36 (protein, listed as Homo sapiens)
chain: MFQAAERPQEWAMEGPRDGLKKERLLDDRHDAGLDAMKDEEYEQMVKELQEIRLEPQEVPRGSEPWKQQLTEDGDSFLHLAIIHEEKALTMEVIRQVKGDLAFLNFQNNLQQTPLHLAVITNQPEIAEALLGAGCDPELRDFRGNTPLHLACEQGCLASVGVLTQSCTTPHLHSILKATNYNGHTCLHLASIHGYLGIVELLVSLGADVNAQEPCNGRTALHLAVDLQNPDLVSLLLKCGADVNRVTYQGYSPYQLTWGRPSTRIQQQLGQLTLENLQMLPESEDEESYDTESEFTEFTEDELPYDDCVFGGQRLTL
effect in the lung IRI model (lung IRI model): proven protective effects
